Results as given in patent publication US9428507B2, “Compounds for the treatment of malaria” (The Broad Institute, Inc., priority 2013, dated 2016).

The compounds below were run on Dd2 strain of P. falciparum (assay: Activity against the Dd2 strain of P. falciparum (SYBR Green I, 72-h incubation)). Conditions: Plasmodium falciparum, DD2, 72 h, read-out: EC^50 Dd2.
Format: cell-based
Method: The Dd2 strain of P. falciparum was cultured in complete medium (RPMI with L-glutamine, 4.3% heat-inactivated O-positive human serum, 2.08 mg/ml albumax, 0.013 mg/ml hypoxanthine, 1.17 mg/ml glucose, 0.18% NaHCO3, 0.031 M Hepes, 2.60 mM NaOH, and 0.043 mg/ml gentamicin) until the parasitemia reached 3-8%. Parasitemia was determined by checking at least 500 red blood cells from a Giemsa-stained blood smear. The Dd2 cultures along with tested O-positive red blood cells are centrifuged at room temperature at 2,000 rpm for 5 min using an Eppendorf centrifuge 581 OR with an A-4-81 rotor. The medium was aspirated off. For the compound screening, a parasite dilution at a 1% parasitemia and 1.0% hematocrit was created with screening medium (RPMI with L-glutamine, 4.16 mg/ml albumax II, 0.013 mg/ml hypoxanthine, 1.73 mg/ml glucose, 0.18% NaHCO3, 0.031M Hepes, 2.60 mM NaOH, and 0.043 mg/ml gentamicin). The suspension was gassed with 93% nitrogen, 4% carbon dioxide, and 3% oxygen and placed at 37° C. until needed. Using a liquid dispenser, 20 μl of screening medium was dispensed into 384-well, black, clear-bottom plates. With a PinTool, 100 nl of compounds dissolved in DMSO was transferred into the assay plates along with control compound (mefloquine). Next, 30 μl of the parasite suspension in screening medium was then dispensed into the assay plates such that the final parasitemia was 1%, and the final hematocrit was 1.0%. Final concentration of DMSO was 0.125%. Mefloquine at a final concentration of 20 μM and DMSO at a final concentration of 0.125% were used within the assay plates to serve as background and baseline controls, respectively. The assay plates were transferred to incubators (93% nitrogen, 4% carbon dioxide, and 3% oxygen during the 72-h incubation at 37° C.). Ten microliters of detection reagent consisting of 1 OX SYBR Green I (Invitrogen; supplied in 10,000× concentration) in lysis buffer (20 mM Tris-HCl, 5 mM EDTA, 0.16% Saponin wt/vol, 1.6% Triton X vol/vol) was dispensed into the assay plates. For optimal staining, the assay plates were left at room temperature for 24 h in the dark. The assay plates were read by using an Envision (PerkinElmer) reader, with 505 dichroic mirrors with 485-nm excitation and 530-nm emission settings, and the plate reads were from the bottom.
Compound COc1ccc2c3c([nH]c2c1)C(CO)N(C(=O)Nc1ccc(F)cc1)CC31CCN(Cc2cc(-c3ccccc3)on2)CC1 (stereo in doubt) [Compound 111, (R)-N-(4-fluorophenyl)-1′-(hydroxymethyl)-7′-methoxy-1-((5-phenylisoxazol-3-yl)methyl)-3′,9′-dihydrospiro [piperidine-4,4′-pyrido[3,4-b]indole]-2′(1′H)-carboxamide] has an EC50 of 0.451 µM.
With COc1ccc2c3c([nH]c2c1)[C@H](CO)N(C(C)=O)CC31CCN(C(=O)Nc2ccccc2Cl)CC1 [Compound 1, (R)-2′-acetyl-N-(2-chlorophenyl)-1′-(hydroxymethyl)-7′ -methoxy-1′,2′,3′,9′-tetrahydrospiro [piperidine-4,4′-pyrido [3,4-b]indole]-1-carboxamide] the EC50 was 0.214 to 0.345 µM.
Work on COc1ccc2c3c([nH]c2c1)C(C)(C)N(C(C)=O)CC31CCN(C(=O)Nc2ccccc2F)CC1 [Compound 2, 2′-acetyl-N-(2-fluorophenyl)-7′ -methoxy-1′,1′-dimethyl-1′,2′,3′,9′-tetrahydrospiro [piperidine-4,4′-pyrido[3,4-b]indole]-1-carboxamide] yielded an EC50 of 0.12 to 0.303 µM.
Work on COc1ccc2c3c([nH]c2c1)[C@H](CO)N(C(=O)C(F)(F)F)CC31CCN(C(=O)Nc2ccccc2F)CC1 [Compound 3, (R)-N-(2-fluorophenyl)-1′-(hydroxymethyl)-7′-methoxy-2′-(2,2,2-trifluoroacetyl)-1′,2′,3′,9′-tetrahydrospiro[piperidine-4,4′-pyrido[3,4-b]indole]-1-carboxamide] yielded an EC50 of 1.61 µM.
COc1ccc2c3c([nH]c2c1)[C@H](CO)N(C(C)=O)CC31CCNCC1 [Compound 4, (R)-1-(1′-(hydroxymethyl)-7′-methoxyspiro [piperidine-4,4′-pyrido[3,4-b]indol]-2′(1′H,3′H,9′H)-yl)ethanone] was tested, and the EC50 was 10.7 µM.
In the case of COc1ccc2c3c(n(C)c2c1)[C@H](CO)N(C(C)=O)CC31CCN(C(=O)Nc2ccccc2F)CC1 [Compound 5, (R)-2′-acetyl-N-(2-fluorophenyl)-1′-(hydroxymethyl)-7′-methoxy-9′-methyl-1′,2′,3′,9′-tetrahydrospiro [piperidine-4,4′-pyrido[3,4-b]indole]-1-carboxamide], the EC50 is reported as 6.49 µM.
CNC[C@H]1c2[nH]c3cc(OC)ccc3c2C2(CCN(C(=O)Nc3ccccc3F)CC2)CN1C(C)=O [Compound 6, (S)-2′-acetyl-N-(2-fluorophenyl)-7′-methoxy-1′-((methylamino)methyl)-1′,2′,3′,9′-tetrahydrospiro[piperidine-4,4′-pyrido[3,4-b]indole]-1-carboxamide] was tested, and the EC50 was 0.183 to 0.319 µM.
COc1ccc2c3c([nH]c2c1)[C@H](CO[Si](C)(C)C(C)(C)C)N(C(C)=O)CC31CCN(C(=O)Nc2cccnc2)CC1 [Compound 7] was tested, and the EC50 was 1.38 µM.
In the case of COc1ccc2c3c([nH]c2c1)[C@H](CO)N(C(C)=O)CC31CCN(C(=O)Nc2ccc(F)cc2)CC1 [Compound 8, (R)-2′-acetyl-N-(4-fluorophenyl)-1′-(hydroxymethyl)-7′ -methoxy-1′,2′,3′,9′-tetrahydrospiro[piperidine-4,4′-pyrido[3,4-b]indole]-1-carboxamide], the EC50 is reported as 1.77 µM.
COc1ccc2c3c([nH]c2c1)[C@H](CO)N(C(=O)C(C)C)CC31CCN(C(=O)Nc2ccccc2F)CC1 [Compound 9] gave an EC50 of 2.91 µM.
Work on COc1ccc2c3c([nH]c2c1)[C@H](CO)N(C(C)=O)CC31CCN(C(=O)Nc2ccc(Cl)cc2)CC1 [Compound 10] yielded an EC50 of 3.38 µM.
COc1ccc2c3c([nH]c2c1)C(C)(C)NCC31CCN(C(=O)OC(C)(C)C)CC1 [Compound 11] was tested, and the EC50 was 4.43 µM.
Work on COc1ccc2c3c([nH]c2c1)[C@H](CO)N(C(C)=O)CC31CCN(C(=O)Nc2cccc(Cl)c2)CC1 [Compound 13, (R)-2′-acetyl-N-(3-chlorophenyl)-1′-(hydroxymethyl)-7′-methoxy-1′,2′,3′,9′-tetrahydrospiro [piperidine-4,4′-pyrido[3,4-b]indole]-1-carboxamide] yielded an EC50 of 0.127 to 0.162 µM.
COc1ccc2c3c([nH]c2c1)C(C)(C)N(C(C)=O)CC31CCN(C(=O)OC(C)(C)C)CC1 [Compound 14, tert-butyl 2′-acetyl-7′-methoxy-1′,1′-dimethyl-1′,2′,3′,9′-tetrahydrospiro [piperidine-4,4′-pyrido[3,4-b]indole]-1-carboxylate] was tested, and the EC50 was 0.415 µM.
C=CCOC(=O)N1CC2(CCN(C(=O)Nc3ccccc3F)CC2)c2c([nH]c3cc(OC)ccc23)[C@@H]1CO [Compound 16, (R)-allyl 1-((2-fluorophenyl)carbamoyl)-1′-(hydroxymethyl)-7′-methoxy-3′,9′-dihydrospiro[piperidine-4,4′-pyrido[3,4-b]indole]-2′(1′H)-carboxylate] showed an EC50 of 2.41 µM.
With COc1ccc2c3c(n(C)c2c1)[C@H](COC(C)=O)N(C(C)=O)CC31CCN(C(=O)Nc2ccccc2F)CC1 [Compound 17, (R)-(2′-acetyl-1-((2-fluorophenyl)carbamoyl)-7′-methoxy-9′-methyl-1′,2′,3′,9′-tetrahydrospiro[piperidine-4,4′-pyrido[3,4-b]indol]-1′-yl)methylacetate] the EC50 was 0.834 µM.
C=CCOC(=O)N1CC2(CCN(C(=O)OC(C)(C)C)CC2)c2c([nH]c3cc(OC)ccc23)[C@@H]1CO[Si](C)(C)C(C)(C)C [Compound 18, (R)-2′-allyl 1-tert-butyl 1′-(((tert-butyldimethylsilyl)oxy)methyl)-7′-methoxy-3′,9′-dihydrospiro[piperidine-4,4′-pyrido[3,4-b]indole]-1,2′(1′H)-dicarboxylate] gave an EC50 of 0.763 µM.
For COc1ccc2c3c([nH]c2c1)[C@H](CO[Si](C)(C)C(C)(C)C)N(C(C)=O)CC31CCN(CCc2ccccc2F)CC1 [Compound 19, (R)-1-(1′-(((tert-butyldimethylsilyl)oxy)methyl)-1-(2-fluorophenethyl)-7′-methoxyspiro[piperidine-4,4′-pyrido[3,4-b]indol]-2′(1′H,3′H,9′H)-yl)ethanone], the EC50 was 1.2 µM.
Work on CCC(=O)N1CC2(CCN(C(=O)Nc3ccccc3F)CC2)c2c([nH]c3cc(OC)ccc23)[C@@H]1CO [Compound 20, (R)-N-(2-fluorophenyl)-1′-(hydroxymethyl)-7′-methoxy-2′-propionyl-1′,2′,3′,9′-tetrahydrospiro[piperidine-4,4′-pyrido[3,4-b]indole]-1-carboxamide] yielded an EC50 of 0.62 µM.
For COc1ccc2c3c([nH]c2c1)[C@H](CO)N(C(C)=O)CC31CCN(Cc2ccccc2F)CC1 [Compound 21, (R)-1-(1-(2-fluorobenzyl)-1′-(hydroxymethyl)-7′-methoxyspiro[piperidine-4,4′-pyrido[3,4-b]indol]-2′(1′H,3′H,9′H)-yl)ethanone], the EC50 was 4.01 µM.
Work on COc1ccc2c3c([nH]c2c1)[C@H](CO[Si](C)(C)C(C)(C)C)N(C(=O)C(C)(C)C)CC31CCN(C(=O)Nc2ccccc2F)CC1 [Compound 22, (R)-1′-(((tert-butyldimethylsilyl)oxy)methyl)-N-(2-fluorophenyl)-7′-methoxy-2′-pivaloyl-l′,2′,3′,9′-tetrahydrospiro[piperidine-4,4′-pyrido[3,4-b]indole]-1-carboxamide] yielded an EC50 of 0.43 µM.

Same assay, conditions: read-out: EC^50 Dd2
For COc1ccc2c3c([nH]c2c1)[C@H](CO)N(C(=O)Cc1ccccc1)CC31CCN(C(=O)Nc2ccccc2F)CC1 [Compound 12], the EC50 was 0.246 to 0.291 µM.
